Values quoted from earlier work, collected in patent US5792763A, “Serotonin 5-HT1F agonists” (Eli Lilly and Company, priority 1997, dated 1998).

Legend:
[1] = background section
[2] = test system: cephalic vascular smooth muscle; settings: background section
[3] = background section; remark: listed apart in the source
neurogenic inflammation = settings: background section

- crossing of the blood-brain barrier [1]: does not cross the blood-brain barrier
SMILES: CNS(=O)(=O)Cc1ccc2[nH]cc(CCN(C)C)c2c1 [sumatriptan]
- contraction of cephalic vascular smooth muscle [2]: contract cephalic vascular smooth muscle
- effectiveness in the treatment of migraine [3]: effective in the treatment of migraine
- blockade of neurogenic inflammation (neurogenic inflammation): blocked
